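All cell lines were grown in 96-well plates and treated with compound for 48 hours. The concentration for 50% growth inhibition is given as GI50. TGI: concentration producing complete growth inhibition.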
What was measured:
Assay in all cases: inhibition of tumour cell growth, NCI panel, 48 h
[1] = tested on: LOX IMVI melanoma
[2] = tested on: OVCAR-4 ovarian
[3] = tested on: K-562 leukemia
[4] = tested on: KM12 colon
[5] = tested on: SF-295 CNS
[6] = tested on: SK-MEL-28 melanoma
[7] = tested on: SR leukemia
[8] = tested on: BT-549 breast
[9] = tested on: SNB-19 CNS
[10] = tested on: RPMI-8226 leukemia

SMILES | GI50 [1] | TGI [1] | GI50 [2] | TGI [2] | GI50 [3] | TGI [3] | GI50 [4] | TGI [4] | GI50 [5] | TGI [5] | GI50 [6] | TGI [6] | GI50 [7] | TGI [7] | GI50 [8] | TGI [8] | GI50 [9] | TGI [9] | GI50 [10] | TGI [10]
O=C(/C=C/c1ccccn1)c1ccccc1O | 1.85 µM | 4.43 µM | 2.98 µM | 8.84 µM | 2.09 µM | > 100 µM | 1.55 µM | 3.04 µM | 2.23 µM | 4.67 µM | 2.09 µM | 4.22 µM | 1.7 µM | 4.99 µM | 2.98 µM | 9.71 µM | 3.21 µM | 13.4 µM | – | –
CC1(C)CC[C@]2(C(=O)n3ccnc3)CC[C@]3(C)[C@H](C(=O)C=C4[C@@]5(C)C=C(C#N)C(=O)C(C)(C)[C@@H]5CC[C@]43C)[C@@H]2C1 | – | – | 0.0359 µM | 0.173 µM | < 0.01 µM | 0.13 µM | < 0.0104 µM | < 0.0199 µM | 0.0152 µM | 0.0975 µM | < 0.0155 µM | 0.0848 µM | – | – | < 0.0328 µM | 0.126 µM | – | – | < 0.01 µM | < 0.01 µM
O=C(CCc1nnc2s/c(=C\c3ccc4c(c3)OCO4)c(=O)n12)Nc1cc(Cl)ccc1Cl | – | > 100 µM | – | > 100 µM | – | > 100 µM | – | > 100 µM | – | > 100 µM | – | > 100 µM | – | > 100 µM | – | – | – | > 100 µM | – | > 100 µM
O=C(Nc1ccc(Cl)c(Cl)c1)C(=O)Nn1c(=S)[nH]c2ccccc2c1=O | – | > 100 µM | – | > 100 µM | – | > 100 µM | – | > 100 µM | – | > 100 µM | – | > 100 µM | – | > 100 µM | – | – | – | > 100 µM | – | > 100 µM
O=C1OC(c2ccccc2)C2CC3CC4(CCC3CN12)OCCO4 (stereo not drawn) | – | > 100 µM | – | > 100 µM | – | > 100 µM | – | > 100 µM | – | > 100 µM | – | > 100 µM | – | > 100 µM | – | – | – | > 100 µM | – | > 100 µM
CN(C)c1ccc(/C=C/C(=O)c2ccccc2)cc1Br | – | – | – | 34.5 µM | – | 75.7 µM | – | 33.3 µM | – | 45.7 µM | – | 30.5 µM | – | – | – | – | – | 41.3 µM | – | 44.4 µM
COc1ccc(S(=O)(=O)N2CCN(C(=O)OCc3ccccc3)CC2C(=O)NO)cc1 (stereo not drawn) | 1.28 µM | 4.6 µM | > 25 µM | > 25 µM | 13.6 µM | > 25 µM | > 25 µM | > 25 µM | > 25 µM | > 25 µM | > 25 µM | > 25 µM | – | – | > 25 µM | > 25 µM | > 25 µM | > 25 µM | – | –
O=c1oc2c3ccc4ccccc4c3n(CCN3CCOCC3)c2c2ccccc12 | – | > 100 µM | – | > 100 µM | – | – | – | > 100 µM | – | > 100 µM | – | > 100 µM | – | 58.3 µM | – | – | – | > 100 µM | – | > 100 µM
O=C(CCCCC(=O)N/N=C\c1ccccc1Cl)N/N=C\c1ccccc1Cl | > 100 µM | > 100 µM | 7.55 µM | > 100 µM | 3.02 µM | > 100 µM | – | – | 0.539 µM | 44.4 µM | 61.3 µM | > 100 µM | > 100 µM | > 100 µM | – | – | 11.3 µM | 39.6 µM | 0.723 µM | > 100 µM
COCC1C(=O)c2cc3c(cc2C12C=CC1(C=C2)OCCO1)OCO3 (stereo not drawn) | – | – | – | 27.4 µM | – | 11.2 µM | – | 18.2 µM | – | 27.9 µM | – | 28.1 µM | – | 6.8 µM | – | – | – | – | – | 4.1 µM
C[N+](C)(C)CCC(=O)N1C/C(=C\c2ccccc2)C(=O)/C(=C/c2ccccc2)C1 | – | 3.46 µM | – | 9.79 µM | – | 6.3 µM | – | 3.11 µM | – | 11.9 µM | – | 15.4 µM | – | – | – | 4.95 µM | – | 12.2 µM | – | 2.3 µM
O=C(Nc1ccc(Cl)c(Cl)c1)C(=O)C(C1OC(=O)c2ccccc21)[N+](=O)[O-] (stereo not drawn) | – | > 100 µM | – | > 100 µM | – | – | – | > 100 µM | – | > 100 µM | – | > 100 µM | – | > 100 µM | – | > 100 µM | – | > 100 µM | – | –
O=c1c2cc(Br)ccc2[nH]c(=S)n1-c1ccc(Br)cc1 | – | > 100 µM | – | > 100 µM | – | > 100 µM | – | > 100 µM | – | > 100 µM | – | > 100 µM | – | > 100 µM | – | – | – | > 100 µM | – | > 100 µM
COc1cc(C2c3cc4c(cc3[C@H](NC(=O)c3cccs3)C3COC(=O)[C@H]23)OCO4)cc(OC)c1OC (stereo partly drawn) | – | > 41 µM | – | – | – | > 37.8 µM | – | – | – | – | – | 83.9 µM | – | 17.7 µM | – | 16.4 µM | – | > 100 µM | – | 19.3 µM
O=C(CC1(O)C(=O)Nc2c(Cl)cccc21)c1ccccc1 (stereo not drawn) | – | > 100 µM | – | > 100 µM | – | > 100 µM | – | > 100 µM | – | > 100 µM | – | > 100 µM | – | – | – | – | – | > 100 µM | – | > 100 µM
CN(C)CCCNC(=O)c1cc(NC(=O)CCNC(=O)c2ccc3c(c2)C(=O)c2ccccc2C3=O)cn1C | – | – | – | – | > 100 µM | > 100 µM | 40.8 µM | > 100 µM | > 100 µM | > 100 µM | – | – | 31 µM | 99.6 µM | > 100 µM | > 100 µM | > 100 µM | > 100 µM | 48 µM | > 100 µM
C[As](C)Sc1ccnc(S[As](C)C)n1 | 2.76 µM | 96.2 µM | 3.44 µM | 36.3 µM | 1.06 µM | – | 9.52 µM | > 51.9 µM | 27.2 µM | > 59.2 µM | 2.67 µM | 19.7 µM | – | – | 3.78 µM | 18.2 µM | 14.7 µM | > 56.2 µM | 1.12 µM | 4.61 µM
COc1ccc(C(=O)C(c2ccc(OC)cc2)C2C(=O)Oc3ccccc32)cc1 (stereo not drawn) | – | – | > 100 µM | > 100 µM | > 100 µM | > 100 µM | > 100 µM | > 100 µM | > 100 µM | > 100 µM | > 100 µM | > 100 µM | > 100 µM | > 100 µM | – | – | – | – | > 100 µM | > 100 µM
CCOc1cc(C=O)c2c(ccc3ccc(OC)c(OC)c32)c1OC | – | > 100 µM | – | > 100 µM | – | > 100 µM | – | > 100 µM | – | > 100 µM | – | > 100 µM | – | – | – | > 100 µM | – | > 100 µM | – | > 100 µM

Source: PubChem BioAssay (NCI)
